Values quoted from earlier work in patent publication US20100008866A1, “CIS-CYCLOHEXYL SUBSTITUTED PYRIMIDINONE DERIVATIVES” (Neurogen Corporation, priority 2006, published 2010).
pKi: −log10 of the molar value.

Target: VR (Homo sapiens, UniProt Q8NER1)
Conditions: typically; no more than moderate affinity; read-out: Ki value (binds to VR)

Sequence of VR (Q8NER1 whole entry): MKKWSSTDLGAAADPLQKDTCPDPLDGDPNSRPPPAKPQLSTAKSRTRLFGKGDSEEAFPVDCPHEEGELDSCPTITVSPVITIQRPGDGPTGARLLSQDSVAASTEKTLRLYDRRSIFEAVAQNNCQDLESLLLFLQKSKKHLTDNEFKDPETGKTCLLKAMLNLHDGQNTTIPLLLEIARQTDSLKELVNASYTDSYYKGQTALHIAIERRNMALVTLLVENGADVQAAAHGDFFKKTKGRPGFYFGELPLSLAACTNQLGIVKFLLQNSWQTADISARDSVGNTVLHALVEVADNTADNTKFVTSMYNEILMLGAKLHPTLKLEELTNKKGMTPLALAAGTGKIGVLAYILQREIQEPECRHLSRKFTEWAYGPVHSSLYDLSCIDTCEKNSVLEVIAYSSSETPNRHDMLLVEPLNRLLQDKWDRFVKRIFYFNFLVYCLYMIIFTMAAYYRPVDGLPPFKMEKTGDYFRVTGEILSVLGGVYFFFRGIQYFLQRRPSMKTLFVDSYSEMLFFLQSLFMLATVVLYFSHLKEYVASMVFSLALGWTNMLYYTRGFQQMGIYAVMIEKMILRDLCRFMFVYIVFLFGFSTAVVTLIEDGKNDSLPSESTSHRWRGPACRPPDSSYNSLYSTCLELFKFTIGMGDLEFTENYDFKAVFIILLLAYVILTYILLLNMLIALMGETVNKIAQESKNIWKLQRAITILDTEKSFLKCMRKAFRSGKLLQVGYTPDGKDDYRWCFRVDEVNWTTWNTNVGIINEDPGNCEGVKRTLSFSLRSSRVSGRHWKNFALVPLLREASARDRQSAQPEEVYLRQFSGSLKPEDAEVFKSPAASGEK

Question: With Cl.Cl.Cl.Cl.Cl.Cl.N.N.N.N.N.N.N.N.N.N.N.N.N.N.[O-2].[O-2].[Ru+3].[Ru+3].[Ru+4] [ruthenium red] as the compound, how does the pKi read?
Answer: Its pKi is ≤ 3.85.
